Values quoted from earlier work, collected in patent US8815262B2, “Pharmaceutical composition and preparation for oral administration” (FUJIFILM Corporation, priority 2010, dated 2014).

Settings: oral administration

- bioavailability: ≤ 4%
Compound: CC(=O)O[C@H]1C(=O)[C@@]2(C)[C@H]([C@H](OC(=O)c3ccccc3)[C@]3(O)C[C@H](OC(=O)[C@H](O)[C@@H](NC(=O)c4ccccc4)c4ccccc4)C(C)=C1C3(C)C)[C@]1(OC(C)=O)CO[C@@H]1C[C@@H]2O [paclitaxel]
